Experimental data: patent US7638678B2, “Animal model for perimenopause and menopause and methods of inducing ovarian failure” (The Arizona Board of Regents, priority 2002, dated 2009)
“Also recorded” adds a separate entry of the source. Where two headings read alike, the source gives them in different places.

Experiments:
[1] = test system: ovarian follicles; settings: mice, cited from earlier work
[2] = Tolerability of VCD dosing regimens; format: in vivo, mice
[3] = test system: estrous cycle; assay: Estrous cyclicity by vaginal cytology; format: in vivo, B6C3F1 mice; settings: 160 mg/kg i.p.
Method: (§1) Treatment: Immature mice (d28) were weighed and injected i.p. with either 80 mg/kg (1, 2, or 3 times daily), 160 mg/kg (1 or 2 times daily), or 240 mg/kg (once daily) with VCD or sesame oil (vehicle control, i.p.) for 15 d resulting in a total daily exposure of 80, 160, 240, or 320 mg/kg (n=6/group). All reagents were obtained from Sigma-Aldrich (St. Louis, Mo.). Estrous cycles of each animal were monitored daily by vaginal cytology from date of vaginal opening to persistent diestrus in VCD-treated mice, and from date of vaginal opening to d120 in controls. On d8, d10, d12, d14, d15, d30, d37, d46, d57 and d120, animals were weighed, euthanized by CO2 inhalation, and the ovaries, liver and trunk blood were collected. Plasma was separated from whole blood and stored at −20° C., and liver tissues were stored at −80° C. At each time point, adrenals, kidneys, uteri, ovaries, liver, and spleen were removed, grossly examined for lesions and wet tissue weights were recorded. Additional blood samples were collected by retro-orbital puncture and plasma was collected and stored on d58, d79, d91, and d100.

[4] = cited from earlier work
[5] = intravenous 14C-tagged VCD, cited from earlier work
[6] = test system: caspase-3; assay: Caspase-3 protease activity in isolated small pre-antral follicles; format: in vivo, B6C3F1 mice
Method: Follicle Isolation: Small preantral follicles (fraction 1, 25-100 μm in diameter), were prepared by gentle enzymatic dissociation of ovaries and hand sorting with micropipettes. Pools of follicles were prepared from both ovaries of six mice in each treatment (control or VCD) for each observation. Following isolation, follicles were washed twice with M199 medium and stored at −20° C.
Caspase-3 Protease Activity Measurement: The cleavage activity of caspase-3 was measured by a fluorescent activity assay. Briefly, the enzymatic reaction was carried out at 37° C. in protease assay buffer (20 mM HEPES, 100 mM NaCl, 10 mM dithiothreitol, 1 mM EDTA, 0.1% [w/v] 3-3 ([3-cholamidopropyl] dimethylammonio)-1-propanesulfanate, and 10% sucrose pH 7.2). Cellular protein (60-180 μg) was incubated with 50 μM of caspase-3 substrate, DEVD-AMC, at 37° C. for 60 minutes. Substrate cleavage was detected by measurement of the fluorescence of free 7-amino-4-methylcoumarin (AMC) with an F-2000 fluorescence spectrophotometer (Hitachi, Ltd., Tokyo, Japan) at 460 nm emission upon excitation at 380 nm.

[7] = test system: osteocalcin; assay: Osteocalcin immunoradiometric assay; format: in vivo, B6C3F1 mice; settings: 160 mg/kg i.p. 15 d
Method: Osteocalcin measurement: Intact serum Osteocalcin was measured using an immunoradiometric assay (IRMA, Immutopics, San Clemente, Calif.). Assay sensitivity was 0.4 ng/ml and the intra-assay coefficient of variation was 6.7%.

[8] = test system: ovarian follicles; settings: cited from earlier work
[9] = test system: femur; assay: Femur histology; format: in vivo, B6C3F1 mice; settings: 160 mg/kg 15 d, femora d58
Method: Histology and oocyte counting: Ovaries were trimmed of fat and placed in Bouin's fixative (2 hours), transferred to 70% ethanol, paraffin-embedded and serially sectioned (4-5 μm), mounted and stained with hematoxylin and eosin. In every 20th section (10-13 sections per ovary), pre-antral follicles were classified as primordial (oocyte surrounded by a single layer of flattened granulosa cells), primary (oocyte surrounded by a single layer of cuboidal cells), secondary (oocyte surrounded by multiple layers of granulosa cells) or antral follicles (follicles containing a fluid-filled antrum). Femora were collected on d58 from both control and VCD-treated animals, fixed in 4% paraformaldehyde, transferred to formaldehyde/formic acid (Cal-Rite, Richard Allan Scientific, Kalamazoo, […]., decalcified 24 hours, vacuum embedded in paraffin and 4.5 μm sections of distal metaphysis were prepared and stained with hematoxylin and eosin.

[10] = Body and wet tissue weights, vaginal opening; format: in vivo, B6C3F1 mice
Method: as §1

SMILES: C1CC2OC2CC1C1CO1 (centres unmarked) [VCD, 4-vinylcyclohexene diepoxide]
- Number of primordial and primary follicles compared to vehicle controls ([1]; 12 days of dosing): significant reduction
- Numbers of secondary follicles ([1]; 30 days of dosing): significant reduction
- Adverse effects of the single daily injection regimen ([2]; 160 mg/kg/d i.p. for 15 d): without adverse effects
- Outcome of total dose injected in a single bolus ([2]; 2400 mg/kg single bolus): died and die within hours
- Tolerance of dosing 3 times a day ([2]; 3 times a day @ 80 mg/kg (total 240 mg/kg/d)): tolerated VCD as well as mice injected once a day with 160 mg/kg; also recorded: tolerate VCD well
- Estrous cyclicity ([3]; by d58): all animals were acyclic
- Animals with irregular cycle length ([3]; d15, irregular = less than 3 d or greater than 5 d): 7/24
- Water solubility [4]: water soluble
- Half life ([5]; blood): 4.4 min
- Mean residence time [5]: 4.7 min
- Cleavage activity of caspase-3 in isolated small pre-antral follicles relative to controls ([6]; 160 mg/kg or 80 mg/kg i.p., 10 d, 4 hours after final treatment): increased
- Caspase-3 activity in small pre-antral (primordial and primary) follicles ([6]; 160 mg/kg/day i.p., 10 d of dosing): 14.37 flourescent units/40 μg protein
- Plasma osteocalcin ([7]; d46): 131.3 ± 5.4 ng/mL
- Plasma osteocalcin ([7]; d58): 156.3 ± 6.1 ng/mL
- Plasma osteocalcin ([7]; d120 (not different from control)): 143.4 ± 7.1 ng/mL
- Premature ovarian failure in long term studies ([8]; F344 rats dosed with VCD): premature ovarian failure occurred within a year
- Number of primordial and primary follicles compared to vehicle controls ([8]; rats, 12 days of dosing): significant reduction
- Numbers of secondary follicles ([8]; rats, 30 days of dosing): significant reduction
- Femur morphology relative to controls [9]: enhanced distances from growth plate to distal metaphysis of the femur with increased lucane
- Adrenal, kidney and spleen weight ([10]; 160 mg/kg 15 d, any time): not affected; also recorded: no effect
- Whole body weights ([10]; 160 mg/kg 15 d, any time-point): not affected
- Increase in liver weight ([10]; 160 mg/kg 15 d, d15): 10 % above control
- Uterine weight relative to age-matched vehicle controls ([10]; 160 mg/kg 15 d, d15): 66.04%
- Increase in liver weight ([10]; 160 mg/kg 15 d, d37): 15 % above control
- Ovarian weight ([10]; 160 mg/kg 15 d, d37): 71.2 % of control
- Uterine weight relative to age-matched vehicle controls ([10]; 160 mg/kg 15 d, d37): 71.8%
- Liver weight ([10]; 160 mg/kg 15 d, d46): returned to control levels
- Ovarian weight ([10]; 160 mg/kg 15 d, d46): 61.8 % of control
- Ovarian weight ([10]; 160 mg/kg 15 d, d120): 20.7 % of control
- Uterine weight relative to age-matched vehicle controls ([10]; 160 mg/kg 15 d, d120): 47.0%
- Ovarian tissue weights across treatment groups ([10]; d10 or d15): not significantly different
- Onset of vaginal opening ([10]; not affected by VCD treatment): 31 ± 0.5 days
